Source: US10744122B2, “Transdermal therapeutic system containing valentonin and use thereof as a medicament” (Soeur Josefa Menendez, priority 2015, dated 2020)
Like-named read-outs stand apart in the source and are kept apart here. One block for each compound: values may come before it.

Experiments:
[1] = cited from earlier work
[2] = Stability of melatonin in frozen human plasma during freeze-thaw cycles (HPLC-MS/MS); type: in vitro ADME; details: human plasma samples stored at about −20° C.
Procedure: Between each cycle, the samples will be maintained under storage temperature conditions (about −20° C.) identical to those used for normal analysis of the samples.

[3] = Stability of the plasma extract in the injection solvent at about +4° C.; type: physicochemical, human; details: for Deviation T0 + 24 h/T0: stored on an autosampler
Procedure: The plasma extracts will be analyzed repeatedly during the validation period in order to check for possible degradation of the compounds during storage in the solvent at about +4° C. The evaluation of stability is based on the back-calculated concentrations, which should be within ±15% (except for LOQ±20%), and an acceptable chromatographic peak shape.

[4] = Stability in acidic gastric medium; type: physicochemical
[5] = Extrapolation to humans of the PK parameter values observed in dogs; type: in vivo; details: human, for a body weight of 64 kg in humans, extrapolated from dogs, read-out: Vdss
Description: As the pharmacokinetic profiles, i.e., the pharmacokinetic parameter values, are identical in humans and dogs, just as in all […] animals, it is possible to extrapolate to humans the PK parameter values observed in dogs.

Effect of freeze-thaw cycles on stability [2]: no effect on the stability
Deviation T0 + 24 h/T0 ([3]; 2 pg/ml): 1.65%
Deviation T0 + 24 h/T0 ([3]; 200 pg/ml): 3.33%
Time sample extracts were stable in the injection solvent ([3]; injection vials stored at about +4° C., after the first injection): at least 24 hours
SMILES: COc1ccc2[nH]cc(CCNC(C)=O)c2c1 [melatonin]
Maximum plasma concentrations observed from 1 a.m. onwards, mean value ([1]; 12 older subjects): 45.6 pg/mL
Maximum plasma concentrations observed from 1 a.m. onwards, mean value ([1]; 12 young subjects): 54.5 pg/mL

SMILES: C=C1c2[nH]c3ccc(OC)cc3c2CCN1C(C)=O [Valentonin, 2-acetyl-6-methoxy-1-methylene-3,4-dihydro-β-carboline]
Stability in acidic gastric medium [4]: completely hydrolyzed in acidic gastric medium
Stability in acidic gastric medium ([4]; listed as VLT): completely degraded in acidic gastric medium
Vd ([5]; in vivo): 320 L

SMILES: COc1ccc2[nH]c3c(c2c1)CCN=C3C [6-Methoxyharmalan, 6-methoxy-1-methyl-3,4-dihydro-β-carboline]
Vd ([5]; plasma, intravenous): 960 L
